{"source": "paper PMC6934184", "about": "“Selective DNA-PKcs inhibition extends the therapeutic index of localized radiotherapy and chemotherapy” (The Journal of Clinical Investigation, 2019)", "target": "T1, CDK9/cyclin K (Homo sapiens, UniProt P50750)", "T1 construct": "purchased Thermo Fisher Scientific (Life Technologies) SelectScreen", "T1 sequence (P50750 whole entry)": "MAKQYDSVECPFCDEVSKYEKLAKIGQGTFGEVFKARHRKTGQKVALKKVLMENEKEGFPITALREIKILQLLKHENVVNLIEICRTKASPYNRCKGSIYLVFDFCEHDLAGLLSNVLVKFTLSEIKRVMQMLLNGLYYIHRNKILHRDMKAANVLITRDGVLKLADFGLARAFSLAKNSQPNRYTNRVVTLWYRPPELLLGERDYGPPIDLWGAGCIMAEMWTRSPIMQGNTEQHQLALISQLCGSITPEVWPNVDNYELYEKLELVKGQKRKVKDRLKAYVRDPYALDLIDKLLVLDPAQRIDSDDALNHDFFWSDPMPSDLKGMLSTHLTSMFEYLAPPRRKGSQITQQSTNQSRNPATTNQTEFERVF", "T1 sequence (O75909 whole entry partner)": "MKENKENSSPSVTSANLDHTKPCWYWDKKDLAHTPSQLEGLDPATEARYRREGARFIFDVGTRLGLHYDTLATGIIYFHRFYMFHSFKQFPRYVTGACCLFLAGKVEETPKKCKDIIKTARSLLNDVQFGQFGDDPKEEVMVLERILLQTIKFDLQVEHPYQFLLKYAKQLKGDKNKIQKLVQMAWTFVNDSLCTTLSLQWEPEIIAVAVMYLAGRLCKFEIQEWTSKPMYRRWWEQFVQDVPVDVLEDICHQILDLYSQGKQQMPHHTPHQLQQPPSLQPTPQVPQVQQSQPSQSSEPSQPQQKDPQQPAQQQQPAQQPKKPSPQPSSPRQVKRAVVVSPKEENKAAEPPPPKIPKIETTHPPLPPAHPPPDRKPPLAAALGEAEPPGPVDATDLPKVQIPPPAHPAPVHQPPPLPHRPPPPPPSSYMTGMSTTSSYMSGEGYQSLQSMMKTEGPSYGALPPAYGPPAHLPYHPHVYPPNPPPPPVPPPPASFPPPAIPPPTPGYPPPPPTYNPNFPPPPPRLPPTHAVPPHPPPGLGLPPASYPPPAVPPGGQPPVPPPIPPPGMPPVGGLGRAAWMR", "test": "SelectScreen LanthaScreen", "format": "binding", "details": "read-out: % displacement", "summary_of_the_method": "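SelectScreen broad panel; activity (Z'LYTE, Adapta) plus binding formats. ATP: Km app for CSF1R Z'LYTE; 10 for CAMK1 Adapta. Readout = % per kinase.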"}
{"compound": "CN(C(=O)CN1CCOCC1)c1ccc2sc3c(-c4cccc5c(=O)cc(N6CC7CCC(C6)O7)oc45)cccc3c2c1", "note": "[NU5455]", "values": [{"measurement": "inhibition at 1 µM", "result": 1, "unit": "%"}]}
